Assay results from patent publication US20040121965A1, “Method of treating resistant tumors” (Wyeth Holdings Corporation, priority 2002, published 2004).
Like-named read-outs stand apart in the source and are kept apart here.

Experiments:
KB-3-1 = assay: Cell survival assay (SRB), KB-3-1; format: cell-based, human; details: Homo sapiens, KB 3-1, KB-3-1 cells (paclitaxel-sensitive parent); read-out: In vitro IC50 (nM) KB-3-1
How it was run: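 SRB protein stain as survival read-out; IC50 = conc. giving 50% growth inhibition. Compound serially diluted, duplicate wells, 3 d exposure; TCA fixation (10% final, 1 h, 4 °C), 0.04% SRB/1% acetic acid 10 min, solubilised in 10 mM Trizma Base, A read.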

KB-8-5 (MDR1+) = assay: Cell survival assay (SRB), KB-8-5 (MDR1+); details: for IC50: Homo sapiens, MDR1, read-out: In vitro IC50 (nM) KB85
KB-V1 (MDR1++) = assay: Cell survival assay (SRB), KB-V1 (MDR1++); details: for IC50: Homo sapiens
[1] = read-out: In vitro IC50 (nM) KBV1

CN[C@H](C(=O)N[C@H](C(=O)N(C)[C@H](/C=C(\C)C(=O)O)C(C)C)C(C)(C)C)C(C)(C)c1cccc(C(C)=O)c1 [Example 155, 3-acetyl-N,β,β-trimethyl-L-phenylalanyl-N^1-[(1S,2E)-3-carboxy-1-isopropylbut-2-enyl]-N^1,3-dimethyl-L-valinamide]
IC50 (KB-3-1): 1.8 nM | Ratio KB85/KB (KB-8-5 (MDR1+)): 3.2 | IC50 (KB-8-5 (MDR1+)): 5.8 nM | Ratio KBV1/KB (KB-V1 (MDR1++)): 206 | IC50 (KB-V1 (MDR1++); [1]): 370 nM

CCOC(=O)/C(C)=C/[C@H](C(C)C)N(C)C(=O)[C@@H](NC(=O)[C@@H](NC)C(C)(C)c1ccccc1)C(C)(C)SC [Example 79, Ethyl (E,4S)-2,5-dimethyl-4-{methyl[(2R)-3-methyl-2-{[(2S)-3-methyl-2-(methylamino)-3-phenylbutanoyl]amino}-3-(methylsulfanyl)butanoyl]amino}-2-hexenoate]
IC50 (KB-3-1): 449 nM | Ratio KB85/KB (KB-8-5 (MDR1+)): 3.2 | IC50 (KB-8-5 (MDR1+)): 1420 nM | Ratio KBV1/KB (KB-V1 (MDR1++)): 5.4 | IC50 (KB-V1 (MDR1++); [1]): 2440 nM

CN[C@H](C(=O)N[C@H](C(=O)N(C)[C@H](/C=C(\C)C(=O)O)C(C)C)C(C)(C)C)C(C)(C)c1ccc(/C=C/c2ccccc2)cc1 [Example 146, N,β,β-trimethyl-4-[(E)-2-phenylvinyl]-L-phenylalanyl-N^1-[(1S,2E)-3-carboxy-1-isopropylbut-2-enyl]-N^1,3-dimethyl-L-valinamide]
IC50 (KB-3-1): 1.3 nM | Ratio KB85/KB (KB-8-5 (MDR1+)): 2.4 | IC50 (KB-8-5 (MDR1+)): 3.1 nM | Ratio KBV1/KB (KB-V1 (MDR1++)): 53.8 | IC50 (KB-V1 (MDR1++); [1]): 70 nM

CCCC/C(=C\[C@@H](NC(=O)[C@@H](NC(=O)[C@@H](NC)C(C)(C)c1ccccc1)C(C)(C)C)C(C)C)C(=O)O [Example 77, (E,4S)-2-Butyl-4-[((2S)-3,3-dimethyl-2-{[(2S)-3-methyl-2-(methylamino)-3-phenylbutanoyl]amino}butanoyl)amino]-5-methyl-2-hexenoic Acid]
IC50 (KB-3-1): 575 nM | Ratio KB85/KB (KB-8-5 (MDR1+)): 3.0 | IC50 (KB-8-5 (MDR1+)): 1740 nM | Ratio KBV1/KB (KB-V1 (MDR1++)): 5.2 | IC50 (KB-V1 (MDR1++); [1]): ≥ 3000 nM

CCOC(=O)/C(C)=C/[C@H](C(C)C)N(C)C(=O)[C@@H](NC(=O)[C@@H](NC)C(C)(C)c1cc2ccccc2s1)C(C)(C)C [Example 27, 3-(1-Benzothien-2-yl)-N-methylvalyl-N^1-[(1S,2E)4-ethoxy-1-isopropyl-3-methyl4-oxo-2-butenyl]-N^1,3-dimethyl-L-valinamide]
IC50 (KB-3-1): 331 nM | Ratio KB85/KB (KB-8-5 (MDR1+)): 4.8 | IC50 (KB-8-5 (MDR1+)): 1580 nM | Ratio KBV1/KB (KB-V1 (MDR1++)): 9.1 | IC50 (KB-V1 (MDR1++); [1]): ≥ 3000 nM

CN[C@H](C(=O)N[C@H](C(=O)N(C)[C@H](/C=C(\C)C(=O)O)C(C)C)C(C)(C)C)C(C)(C)c1cccc(-c2ccccc2)c1 [Example 39, 3-phenyl-N,β,β-trimethyl-L-phenylalanyl-N^1-[(1S,2E)-3-carboxy-1-isopropylbut-2-enyl]-N^1,3-dimethyl-L-valinamide]
IC50 (KB-3-1): 1.9 nM | Ratio KB85/KB (KB-8-5 (MDR1+)): 2.8 | IC50 (KB-8-5 (MDR1+)): 5.4 nM | Ratio KBV1/KB (KB-V1 (MDR1++)): 78.4 | IC50 (KB-V1 (MDR1++); [1]): 149 nM

C=CC(C)(C)[C@H](NC)C(=O)N[C@H](C(=O)N(C)[C@H](/C=C(\C)C(=O)O)C(C)C)C(C)(C)C [Example 121, (2E, 4S)-4-[((2S)-2-{[3,3-dimethyl-2-(methylamino)-4-pentenoyl]amino}-3,3-dimethylbutanoyl)(methyl)amino]-2,5-dimethyl-2-hexenoic Acid]
IC50 (KB-3-1): 136 nM | Ratio KB85/KB (KB-8-5 (MDR1+)): 1.4 | IC50 (KB-8-5 (MDR1+)): 186 nM | Ratio KBV1/KB (KB-V1 (MDR1++)): 22.0 | IC50 (KB-V1 (MDR1++); [1]): ≥ 3000 nM

CN[C@H](C(=O)N[C@H](C(=O)N(C)[C@H](/C=C(\C)C(=O)O)C(C)C)C(C)(C)C)C(C)(C)c1ccc(C(C)(C)C)cc1 [Example 30, 4-tert-Butyl-N,β,β-trimethylphenylalanyl-N^1-[(1S,2E)-3-carboxy-1-isopropyl-2-butenyl]-N^1,3-dimethyl-L-valinamide]
IC50 (KB-3-1): 3 nM | Ratio KB85/KB (KB-8-5 (MDR1+)): 1.7 | IC50 (KB-8-5 (MDR1+)): 5.1 nM | Ratio KBV1/KB (KB-V1 (MDR1++)): 35.9 | IC50 (KB-V1 (MDR1++); [1]): 108 nM

CN[C@H](C(=O)N[C@H](C(=O)N(C)[C@H](/C=C(\C)C(=O)NCCc1ccccc1)C(C)C)C(C)(C)C)C(C)(C)c1ccccc1 [Example 112, N,β,β-trimethyl-L-phenylalanyl-N^1-{(1S,2E)-1-isopropyl-3-methyl4-oxo4-[(2-phenylethyl)amino]but-2-enyl}-N^1,3-dimethyl-L-valinamide]
IC50 (KB-3-1): 163 nM | Ratio KB85/KB (KB-8-5 (MDR1+)): 1.4 | IC50 (KB-8-5 (MDR1+)): 226 nM | Ratio KBV1/KB (KB-V1 (MDR1++)): 10.8 | IC50 (KB-V1 (MDR1++); [1]): 1770 nM

CCCCCCCCOC(=O)/C(C)=C/[C@H](C(C)C)N(C)C(=O)[C@@H](NC(=O)[C@@H](NC)C(C)(C)c1ccccc1)C(C)(C)C [Example 116, N,β,β-trimethyl-L-phenylalanyl-N^1-[(1S,2E)-1-isopropyl-3-methyl-4-(octyloxy)-4-oxobut-2-enyl]-N^1,3-dimethyl-L-valinamide]
IC50 (KB-3-1): 150 nM | Ratio KB85/KB (KB-8-5 (MDR1+)): 10.9 | IC50 (KB-8-5 (MDR1+)): 1630 nM | IC50 (KB-V1 (MDR1++); read-out: In vitro IC50 KBV1): > 3000 nM

CN[C@H](C(=O)N[C@H](C(=O)N(C)[C@H](/C=C(\C)C(=O)O)C(C)C)C(C)(C)C)C(C)(C)c1cc2ccccc2s1 [Example 28, 3-(1-Benzothien-2-yl)-N-methylvalyl-N^1-[(1S,2E)-3-carboxy-1-isopropyl-2-butenyl]-N^1,3-dimethyl-L-valinamide]
IC50 (KB-3-1): 2.55 nM | Ratio KB85/KB (KB-8-5 (MDR1+)): 1.8 | IC50 (KB-8-5 (MDR1+)): 4.6 nM | Ratio KBV1/KB (KB-V1 (MDR1++)): 54.4 | IC50 (KB-V1 (MDR1++); [1]): 139 nM

CN[C@H](C(=O)N[C@@H](C(=O)N(C)[C@H](/C=C(\C)C(=O)O)C(C)C)C(C)C)C(C)(C)c1ccccc1 [Example 131, N,β,β-trimethyl-L-phenylalanyl-N^1-[(1S,2E)-3-carboxy-1-isopropylbut-2-enyl]-N^1-methyl-D-valinamide]
IC50 (KB-3-1): 6 nM | Ratio KB85/KB (KB-8-5 (MDR1+)): 2.0 | IC50 (KB-8-5 (MDR1+)): 12 nM | Ratio KBV1/KB (KB-V1 (MDR1++)): 512.8 | IC50 (KB-V1 (MDR1++); [1]): ≥ 3000 nM

CN[C@H](C(=O)N[C@H](C(=O)N(C)[C@H](/C=C(\C)C(=O)OCc1cccs1)C(C)C)C(C)(C)C)C(C)(C)c1ccccc1 [Example 115, N,β,β-trimethyl-L-phenylalanyl-N^1-[(1S,2E)-1-isopropyl-3-methyl-4-oxo-4-(thien-2-ylmethoxy)but-2-enyl]-N^1,3-dimethyl-L-valinamide]
IC50 (KB-3-1): 5 nM | Ratio KB85/KB (KB-8-5 (MDR1+)): 46.2 | IC50 (KB-8-5 (MDR1+)): 231 nM | IC50 (KB-V1 (MDR1++); read-out: In vitro IC50 KBV1): > 3000 nM

CN[C@H](C(=O)N[C@H](C(=O)N[C@H](/C=C(\C)C(=O)O)C(C)C)C(C)(C)C)C(C)(C)c1ccccc1.O=C(O)C(F)(F)F [Example 101, N,β,β-trimethyl-L-phenylalanyl-N^1-[(1S,2E)-3-carboxy-1-isopropylbut-2-enyl]-3-methyl-L-valinamide Trifluoroacetic Acid]
IC50 (KB-3-1): 43.1 nM | Ratio KB85/KB (KB-8-5 (MDR1+)): 3.2 | IC50 (KB-8-5 (MDR1+)): 139 nM | Ratio KBV1/KB (KB-V1 (MDR1++)): 69.6 | IC50 (KB-V1 (MDR1++); [1]): ≥ 3000 nM

CN[C@H](C(=O)N[C@H](C(=O)N(C)[C@H](/C=C(\C)C(=O)Nc1ccc(N=[N+]=[N-])cc1)C(C)C)C(C)(C)C)C(C)(C)c1ccccc1 [Example 111, N,β,β-trimethyl-L-phenylalanyl-N^1-{(1S,2E)-4-[(4-azidophenyl)amino]-1-isopropyl-3-methyl-4-oxo-2-butenyl}-N^1,3-dimethyl-L-valinamide]
IC50 (KB-3-1): 178 nM | Ratio KB85/KB (KB-8-5 (MDR1+)): 2.9 | IC50 (KB-8-5 (MDR1+)): 513 nM | Ratio KBV1/KB (KB-V1 (MDR1++)): 12.6 | IC50 (KB-V1 (MDR1++); [1]): 2240 nM
